From ChEMBL document CHEMBL5131415, “Cadiolide analogues and their precursors as new inhibitors of bacterial quorum sensing and biofilm formation” (2022)
The source made the active and inactive calls. The rule behind the calls is not given here.

Experiments:
Escherichia coli [1] = experiment: Inhibition of biofilm formation in Escherichia coli RP347 at 50 ug/ml by crystal violet staining based microtiter plate method; assay type: functional, organism-based; settings: dose 50.0 µg/ml
[2] = Inhibition of Escherichia coli RP347 planktonic cell growth at 50 ug/ml by microplate reader analysis relative to control; assay type: functional; settings: RP347, dose 50 µg/ml
Escherichia coli [3] = experiment: Inhibition of biofilm formation in Escherichia coli RP347 at 50 ug/ml by crystal violet staining based microtiter plate method relative to control; assay type: functional; settings: for inhibition at 50 µg/mL: Escherichia coli, RP347, dose 50 µg/ml
Vibrio harveyi [4] = experiment: Inhibition of AHL-mediated quorum sensing system in Vibrio harveyi BB886 assessed as reduction in luminescence at 10 ug/ml by bioluminescence method relative to control; settings: dose 10.0 µg/ml
Vibrio harveyi [5] = experiment: Inhibition of AI-2-mediated quorum sensing system in Vibrio harveyi BB170 assessed as reduction in AI-2 production at 10 ug/ml by bioluminescence method relative to control; settings: dose 10.0 µg/ml
Pseudomonas aeruginosa [6] = experiment: Inhibition of biofilm formation in Pseudomonas aeruginosa PAO1 at 50 ug/ml by crystal violet staining based microtiter plate method relative to control; assay type: functional
Pseudomonas aeruginosa [7] = experiment: Induction of biofilm formation in Pseudomonas aeruginosa PAO1 at 50 ug/ml by crystal violet staining based microtiter plate method relative to control; assay type: functional; settings: dose 50.0 µg/ml

| SMILES | inhibition (Escherichia coli [1]) | inhibition at 50 µg/mL (Escherichia coli [3]) [%] | inhibition (Vibrio harveyi [5]) [%] | further results |
| --- | --- | --- | --- | --- |
| COc1cccc(C2=C(C(=O)c3ccc(Br)cc3)C(=O)O/C2=C\c2ccc(OC)c(Br)c2)c1 | Active |  |  |  |
| O=C1O/C(=C\c2ccc(O)cc2)C(c2ccc(O)c(Br)c2)=C1C(=O)c1ccc(Br)cc1 |  | 100 |  | inhibition at 50 µg/mL [2]: 61.9% |
| O=C1O/C(=C\c2ccc(O)c(Br)c2)C(c2ccc(O)c(Br)c2)=C1C(=O)c1ccc(Br)cc1 |  | 100 |  |  |
| COc1ccc(C(=O)C2=C(c3ccc(OC)c(Br)c3)COC2=O)cc1 | Active |  |  | inhibition at 50 µg/mL [2]: 87.4% |
| O=C1O/C(=C\c2ccc(O)c(Br)c2)C(c2ccc(O)c(Br)c2)=C1C(=O)c1ccc(O)cc1 |  |  | 99.6 | inhibition at 50 µg/mL [2]: 33.4%; inhibition (Vibrio harveyi [4]): 88.7%; inhibition at 50 µg/mL (Pseudomonas aeruginosa [6]): 10% |
| COc1ccc(C2=C(C(=O)c3ccc(Br)cc3)C(=O)O/C2=C\c2ccc(C(F)(F)F)cc2)cc1Br |  |  |  | Activity (Pseudomonas aeruginosa [7]): > 75% |
| O=C1O/C(=C\c2ccc(O)c(Br)c2)C(c2ccc(O)c(Br)c2)=C1C(=O)c1cccc(Br)c1 | Active |  |  |  |
| COc1cc(C#CC(=O)c2ccc(Br)cc2)ccc1Br |  | 75.1 |  | inhibition (Vibrio harveyi [4]): 80%; inhibition at 50 µg/mL (Pseudomonas aeruginosa [6]): 29% |
| COc1ccc(C2=C(C(=O)c3ccc(Br)cc3)C(=O)O/C2=C\c2ccc(Br)cc2)cc1Br | Active |  |  |  |
| COc1cc(OC)c(/C=C2\OC(=O)C(C(=O)c3ccc(Br)cc3)=C2c2ccc(OC)c(Br)c2)c(OC)c1 |  | 100 |  |  |
| O=C1O/C(=C\c2ccc(Br)cc2)C(c2ccc(O)c(Br)c2)=C1C(=O)c1ccc(Br)cc1 |  | 100 |  | inhibition (INH) (Escherichia coli [3]; dose 50 µg/ml): 90% |
| COc1ccc(C2=C(C(=O)c3ccc(Br)cc3)C(=O)OC2)cc1Br |  | 100 | > 80 | inhibition (Vibrio harveyi [4]): 72.6%; inhibition at 50 µg/mL (Pseudomonas aeruginosa [6]): 15.3% |
| COc1ccc(C(=O)C#Cc2ccc(Br)c(OC)c2)cc1 | Active |  | 100 | Activity (Pseudomonas aeruginosa [7]): > 80% |
| COc1ccc(/C=C2\OC(=O)C(C(=O)c3ccc(Br)cc3)=C2c2cccc(OC)c2)cc1 | Active |  | 76.1 | Activity (Pseudomonas aeruginosa [7]): > 75% |
| COc1ccc(C(=O)C2=C(c3ccc(OC)c(Br)c3)/C(=C/c3ccc(OC)c(Br)c3)OC2=O)cc1 | Active |  | 74.9 |  |
| COc1cccc(C2=C(C(=O)c3ccc(Br)cc3)C(=O)O/C2=C\c2ccc(Br)cc2)c1 | Active |  |  |  |
| COc1ccc(C(=O)C2=C(c3ccc(OC)c(Br)c3)/C(=C/c3ccc(Cl)cc3)OC2=O)cc1 | Active |  |  | inhibition at 50 µg/mL (Pseudomonas aeruginosa [6]): 10% |
| COc1ccc(/C=C2\OC(=O)C(C(=O)c3ccc(Br)cc3)=C2c2ccc(OC)c(Br)c2)cc1 |  | 100 |  | inhibition (Vibrio harveyi [4]): 78.1% |
| COc1cc(C#CC(=O)c2cccc(Br)c2)ccc1Br | Active |  | 100 |  |
| COc1ccc(C2=C(C(=O)c3cccc(Br)c3)C(=O)O/C2=C\c2ccc(Cl)cc2)cc1Br |  | 100 |  | Activity (Pseudomonas aeruginosa [7]): > 75% |
| COc1ccc(C#CC(=O)c2ccc(Br)cc2)cc1 | Active |  | 100 | inhibition at 50 µg/mL [2]: 82.6%; inhibition at 50 µg/mL (Pseudomonas aeruginosa [6]): 29% |
| COc1ccc(C2=C(C(=O)c3cccc(Br)c3)C(=O)OC2)cc1Br | Active | 81.2 | > 80 | Activity (Pseudomonas aeruginosa [7]): > 80% |
| COc1ccc(/C=C2\OC(=O)C(C(=O)c3cccc(Br)c3)=C2c2ccc(OC)c(Br)c2)cc1Br | Active |  |  |  |
| COc1ccc(/C=C2\OC(=O)C(C(=O)c3ccc(Br)cc3)=C2c2ccc(OC)c(Br)c2)cc1Br | Active |  |  | Activity (Pseudomonas aeruginosa [7]): > 75%; inhibition (Vibrio harveyi [4]): 76.1% |
| COc1cccc(C2=C(C(=O)c3ccc(Br)cc3)C(=O)OC2)c1 | Active |  |  | inhibition at 50 µg/mL [2]: 76.5%; inhibition at 50 µg/mL (Pseudomonas aeruginosa [6]): 22.7% |
